Measured values reported in patent publication US7282599B2, “Dithiocarbamate antiviral agents and methods of using same” (Avir Green Hills Biotechnology Research Devlopment Trade AG, priority 2001, dated 2007).

Key:
influenza virus = conditions: Knobil et al., Am. J. Physiol. 1998; cited from earlier work
[1] = tested on: rhinoviral proteins VP1, VP2 and VP3; assay: Western blot of HRV2 capsid proteins in infected HeLa cells; type: cell-based, human rhinovirus; conditions: HRV2 100 TCID50 per cell
Text: To determine the effect of PDTC on the expression of viral proteins, capsid proteins of HRV2 were detected by Western blot analysis in protein extracts from HRV2-infected HeLa cells (100 TCID50 per cell) (see FIG. 6). The Western blot analysis was done as described above in Example 5, with use of a polyclonal rabbit antiserum against HRV2. Significant amounts of the rhinoviral proteins VP1, VP2 and VP3 were detected in untreated cells six hours after infection.

[2] = tested on: HRV2, HRV14, HRV1A and HRV16; assay: HRV-induced cytopathic effects (morphology) in HeLa cells; type: cell-based, human rhinovirus
Protocol: Morphological changes in the cells, called “cytopathic effects” (CPE) occur in the late stages of a rhinoviral infection. These HRV induced CPE are characterized as cell rounding, shrinkage, deformation of the nucleus and chromatin condensation. When HeLa cells are infected with HRV2, HRV14, HRV1A and HRV16 at 100 TCID50 per cell, a distinct cytopathic effect is visible after 8 hours post-infection.

HRV2 [3] = assay: Cell Titer 96 cell proliferation assay, viability of HRV2-infected HeLa cells; type: cell-based, human rhinovirus; conditions: HeLa cells, HRV2 20 TCID50/cell, 24 hours after infection, even slight concentrations
Text: A cell proliferation assay was done to test the effect of PDTC or DDTC on the viability of the cells during a viral infection.

FMV virus O-Manisa = type: cell-based, foot and mouth disease virus; conditions: IB-RS-2 cells, 0.001 TCID50 per cell, PDTC up to 200 μM, 24 hours after infection
A/PR8/34 = assay: microbe, parasite or virus in culture; type: cell-based, influenza A virus; conditions: 4 days
FSME virus (Neudörfel) = assay: FSME virus proliferation in suspended cells; type: cell-based; conditions: same concentrations, 0.975 to 1000 μM
Protocol: Similarly, we investigated whether PDTC can affect virus proliferation in suspended cells. The same concentrations as above were tested.

HRV2 [4] = assay: Crystal violet staining of cell lawn of HRV2-infected HeLa cells; type: cell-based, human rhinovirus; conditions: HRV2 100 TCID50 per cell, compound added 1 hour after infection, stained after 24 hours

S=C(S)N1CCCC1 [PDTC, pyrrolidine dithiocarbamate]
inhibition of influenza virus infection or replication (influenza virus): neither NAC nor PDTC inhibits influenza virus infection or replication
expression of VP1, VP2 and VP3 ([1]; about 24 hours after infection): Weak expression
expression of capsid proteins VP1, VP2 and VP3 ([1]; within the first 8 hours after infection): prevented expression of those capsid proteins
morphology of infected cells ([2]; 125 μM PDTC, 8 hours after the infection): cannot be distinguished from the morphology of non-infected (n. i.) cells
appearance of cytopathic effects ([2]; HeLa cells, 100 TCID50 per cell, PDTC added during the infection): prevents the appearance of these cytopathic effects
viability of infected cells (HRV2 [3]): significantly increased
reduction of virus titer compared with the control sample (FMV virus O-Manisa): more than 2 log steps
inhibition at 1200 µM (A/PR8/34; Influenza A virus, PR8, 96 h, PDTC 1200 μM, read-out: inhibition (TCID50 assay)): > 99.9%
reduction of TCID50 (A/PR8/34; PDTC 300 μM): 76.4%
reduction of virus proliferation in suspended cells (FSME virus (Neudörfel)): no indication of reduction of virus proliferation
prevention of destruction of the cell lawn by HRV2 infection (HRV2 [4]): can prevent that effect
